Patent US9827246B2, “Biomarkers of response to NAE inhibitors” (Millennium Pharmaceuticals, Inc., priority 2011, dated 2017)

Columns and labels:
Assay type in all cases: cell-based
[1] = tested on: AsPC-1; test: Panel 1 cell viability screen; conditions: FBXW7 mutant
Procedure: (§1) To support clinical development and identify potential biomarkers of tumor sensitivity or resistance, two large cancer cell line panels (Panel 1, N=653 (McDermott et al. (2007) PNAS 104:19936-19941); Panel 2, N=240 (O'Day et al. (2010) Fourth AACR International Conference on Molecular Diagnostics in Cancer Therapeutic Development)) were treated with MLN4924 and cell viability data (IC50, EC50, and POC—Percentage of Control) were generated.
(§2) Panel 1 (McDermott et al., supra). The cell lines were exposed to three MLN4924 concentrations (20 nM, 200 nM, and 2 μM) for 72 hours. Viability, i.e., cell number, was quantified by measuring fluorescence of a cell-permeant nucleic acid stain. Mean of triplicate values for each sample were taken and compared to DMSO control to calculate percentage of control. In the results, control or no activity value is given a value of about 1, sensitivity is indicated by a value less than 1, with 0 as death of the entire cell population and resistance indicated by a value greater than 1. A continuum of viability values was obtained for each concentration, so some values were selected as cut-offs for final determination of sensitivity or resistance. For example, median POC values of less than the median value of all POC's recorded in the panel (<0.34) indicated sensitivity, values of 0.34 to 0.75 indicated borderline sensitivity, values greater than the 3rd quartile of all POC's in the panel (>0.75) insensitivity or resistance. […] Final judgment of cell line as sensitive, insensitive or resistant was determined by its viability at 2 μM.

[2] = tested on: BxPC-3; test: Panel 1 cell viability screen; conditions: SMAD4 mutant
Procedure: as §1, §2

[3] = tested on: CAPAN-1; test: Panel 1 cell viability screen; conditions: SMAD4 mutant
Procedure: as §1, §2

[4] = tested on: CFPAC-1; test: Panel 1 cell viability screen; conditions: SMAD4 mutant
Procedure: as §1, §2

[5] = tested on: COCM1; test: Panel 1 cell viability screen; conditions: CoCM-1; SMAD4 mutant
Procedure: as §1, §2

[6] = tested on: COLO-678; test: Panel 1 cell viability screen; conditions: SMAD4 mutant
Procedure: as §1, §2

[7] = tested on: HT29; test: Panel 1 cell viability screen; conditions: HT-29; SMAD4 mutant
Procedure: as §1, §2

[8] = tested on: MDA-MB-231; test: Panel 1 cell viability screen; conditions: NF2 mutant
Procedure: as §1, §2

[9] = tested on: MKN1; test: Panel 1 cell viability screen; conditions: FBXW7 mutant
Procedure: as §1, §2

[10] = tested on: MKN45; test: Panel 1 cell viability screen; conditions: SMAD4 mutant
Procedure: as §1, §2

[11] = tested on: PANC-08-13; test: Panel 1 cell viability screen; conditions: SMAD4 mutant
Procedure: as §1, §2

[12] = tested on: RCM-1; test: Panel 1 cell viability screen; conditions: FBXW7 mutant
Procedure: as §1, §2

[13] = tested on: S-117; test: Panel 1 cell viability screen; conditions: NF2 mutant
Procedure: as §1, §2

[14] = tested on: SW 1463; test: Panel 1 cell viability screen; conditions: SW1463; FBXW7 mutant
Procedure: as §1, §2

[15] = tested on: SW620; test: Panel 1 cell viability screen; conditions: SMAD4 mutant
Procedure: as §1, §2

[16] = tested on: UMC-11; test: Panel 1 cell viability screen; conditions: SMAD4 mutant
Procedure: as §1, §2

[17] = tested on: NCI-H520; test: Panel 2 high-content cell screen; conditions: Homo sapiens, 72 h, cell number
Procedure: as §1
(§3) Panel 2 (Ricerca Biosciences, Inc., Bothell, Wash.). MLN4924 was added in half-log dilutions for 10 concentrations and treated for 72 hours. High-content cell screening by fluorescence microscopy included image analysis to generate several types of data. Results included EC50 values (after measurement of cell numbers, the EC50 concentration was calculated from the inflection point of a curve of percent of control (POC) against log of MLN4924 concentration), IC50 values (from the POC-log MLN4924 plot, IC50 is the concentration at 50% maximal possible response), apoptosis (measurement of activation of caspase 3 plotted against log of MLN4924 concentration, determined as the concentration for >5 fold induction), and mitotic activity (determined by measuring the fold increase of phospho-histone 3). A comparison of EC50 to IC50 (FIG. 3) allowed assignment of cell lines to sensitive, insensitive or resistant. Final identification of a cell line as sensitive or resistant was based on the EC50 values. The cutoff for sensitivity is a median EC50 of less than the median value of all POC's recorded in the panel (<0.36), borderline sensitivity was associated with median EC50 of 0.36 to 1.67 and insensitive or resistant cell lines were identified by EC50 greater than the 3rd quartile of all POC's in the panel (>1.67).

[18] = tested on: SK-OV-3; test: Panel 2 high-content cell screen; conditions: Homo sapiens, 72 h, cell number
Procedure: as §1, §3

[19] = tested on: SW 1116; test: Panel 2 high-content cell screen; conditions: Homo sapiens, 72 h, cell number
Procedure: as §1, §3

[20] = tested on: p21 in TP53−/− HCT-116 cells; test: Western blots of p21

For `NS(=O)(=O)OC[C@@H]1C[C@@H](n2ccc3c(N[C@H]4CCc5ccccc54)ncnc32)C[C@@H]1O` [MLN4924, ((1S,2S,4R)-4-{4-[(1S)-2,3-dihydro-1H-inden-1-ylamino]-7H-pyrrolo[2,3-d]pyrimidin-7-yl}-2-hydroxycyclopentyl)methyl sulphamate], the Phenotype [1] was “resistant”, the Phenotype [2] was “insensitive” and the Phenotype [3] was “sensitive?”. The Phenotype [4] was “sensitive?”, the Phenotype [5] was “resistant” and the Phenotype [6] was “resistant”. The Phenotype [7] was “insensitive”, the Phenotype [8] was “insensitive” and the Phenotype [9] was “insensitive”. For the same compound, the Phenotype [10] was “insensitive”, the Phenotype [11] was “resistant” and the Phenotype [12] was “resistant”. For the same compound, the Phenotype [13] was “resistant”, the Phenotype [14] was “resistant” and the Phenotype [15] was “insensitive”. The Phenotype [16] was “insensitive”, the EC50 [17] was 0.261 µM and the EC50 [18] was at least 10 µM. For the same compound, the EC50 [19] was at least 10 µM and the “p21 (Western blots)” value [20] was “still up-regulated”.
